Experimental data: article PMC7044277 (Nature Communications, 2020)
Values joined by “and” are separate entries in the source; they are usually repeats but may differ in a detail not shown here. Equal values may be shown once.

What was measured:
[1] = target: T1, DRD2 S1945.43G (Homo sapiens, UniProt P14416, S194G); test: Gαi/o-mediated cAMP inhibition (GloSensor), mutant; type: cell-based; conditions: DRD2 Ser5.43Gly; G-protein assay
T1 construct: expressed in transfected cells; host or cells: HEK293T (ATCC CRL-11268)
T1 sequence (P14416 whole entry S194G): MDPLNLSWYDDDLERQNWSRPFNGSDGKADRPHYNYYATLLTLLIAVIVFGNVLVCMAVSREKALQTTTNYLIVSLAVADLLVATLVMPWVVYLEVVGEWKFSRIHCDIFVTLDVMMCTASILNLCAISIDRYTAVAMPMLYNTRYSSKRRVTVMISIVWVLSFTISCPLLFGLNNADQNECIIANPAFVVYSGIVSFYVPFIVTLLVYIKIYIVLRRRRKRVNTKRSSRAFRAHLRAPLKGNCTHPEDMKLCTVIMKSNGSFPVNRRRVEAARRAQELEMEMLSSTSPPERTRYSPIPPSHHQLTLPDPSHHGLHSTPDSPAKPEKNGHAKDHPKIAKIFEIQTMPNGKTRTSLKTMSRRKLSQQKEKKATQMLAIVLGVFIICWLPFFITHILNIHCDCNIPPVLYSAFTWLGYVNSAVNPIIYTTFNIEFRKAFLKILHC

[2] = target: DRD2 (D2 long receptor) (Homo sapiens, UniProt P14416); test: β-arrestin2 recruitment (Tango), HTLA cells; type: cell-based; conditions: for response, concentration-response data point (replicates): Fig_S10a, drug alone
Chain of DRD2 (D2 long receptor) (P14416 whole entry): as the sequence (P14416 whole entry S194G) above, with G194S counted along it

[3] = target: T2, 5HT1A (Homo sapiens, UniProt P08908); test: β-arrestin2 recruitment (Tango); type: cell-based; conditions: Fig_S10f, single replicates
T2 construct: expressed in transfected cells; host or cells: HTLA cells expressing TEV-fused β-arrestin2
T2 sequence (P08908 1-422): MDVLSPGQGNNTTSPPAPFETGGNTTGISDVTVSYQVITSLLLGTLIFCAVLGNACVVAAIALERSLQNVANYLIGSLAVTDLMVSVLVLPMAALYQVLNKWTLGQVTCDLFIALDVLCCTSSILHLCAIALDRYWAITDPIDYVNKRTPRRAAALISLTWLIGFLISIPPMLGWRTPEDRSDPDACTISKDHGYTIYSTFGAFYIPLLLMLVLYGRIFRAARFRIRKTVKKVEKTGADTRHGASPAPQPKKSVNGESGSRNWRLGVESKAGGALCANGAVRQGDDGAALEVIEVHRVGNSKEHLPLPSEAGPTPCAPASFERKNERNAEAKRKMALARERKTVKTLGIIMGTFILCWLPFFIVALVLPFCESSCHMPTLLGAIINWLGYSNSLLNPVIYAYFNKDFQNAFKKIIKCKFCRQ

[4] = system: serotonin receptor (subtype not given; reference agonist serotonin); test: β-arrestin2 recruitment (Tango), agonist activity, source data Fig_S10l; type: cell-based, human; conditions: drug alone

Question: For `CCOc1cccc2cc([C@H](C)NCC3(O)CCCCC3)oc12` [O4SE6], which “agonism after serine to glycine substitution” value [1] is on record?
Answer: Its value is “impaired”.

Question: What about the “β-arrestin2 recruitment agonist activity” value ([2]; DRD2, Tango) of the same molecule?
Answer: Its value is “selective DRD2 agonist”.

Question: And the EC50 ([2]; DRD2, β-arrestin2 recruitment (Tango), read-out: EC50 ± SEM)?
Answer: Its EC50 is 1050 nM.

Question: And the “response, concentration-response data point (replicates)” value (shortened to “response … (replicates)”) ([2]; Log[Drug] -5)?
Answer: Its value is 73.5777 and 57.7969 and 60.7943 and 65.7822 and 71.9755 and 71.4753 and 62.0106.

Question: What about the “response … (replicates)” value ([2]; Log[Drug] -5.52) of the same molecule?
Answer: Its value is 50.6787 and 47.7474 and 41.401 and 56.0167 and 52.8546 and 51.367 and 55.6817.

Question: What about the “response … (replicates)” value ([2]; Log[Drug] -6) of the same molecule?
Answer: Its value is 39.3966 and 41.1099 and 37.2084 and 41.7585 and 38.5021 and 38.079 and 42.2149.

Question: And the “response … (replicates)” value ([2]; Log[Drug] -6.52)?
Answer: The value was 17.548 and 17.9218 and 22.2395 and 30.2893 and 22.7451 and 19.4102 and 21.7916.

Question: What about the “response … (replicates)” value ([2]; Log[Drug] -7) of the same molecule?
Answer: The value was 9.564 and 7.739 and 7.708 and 7.415 and 7.649 and 7.113 and 9.501.

Question: And the “response … (replicates)” value ([2]; Log[Drug] -7.52)?
Answer: Its value is 5.75 and 5.841 and 5.282 and 5.619 and 6.782 and 5.749 and 5.8801.

Question: And the “response … (replicates)” value ([2]; Log[Drug] -8)?
Answer: The value was 5.434 and 5.45 and 5.389 and 5.042 and 5.329 and 5.148 and 5.345.

Question: And the “response … (replicates)” value ([2]; Log[Drug] -8.52)?
Answer: The value was 5.277 and 5.01 and 4.9419 and 4.98 and 5.0858 and 5.308 and 5.178.

Question: What about the “response … (replicates)” value ([2]; Log[Drug] -9) of the same molecule?
Answer: Its value is 5.4097 and 5.385 and 5.128 and 4.863 and 4.947 and 4.805 and 4.8829.

Question: What about the “response … (replicates)” value ([2]; Log[Drug] -9.52) of the same molecule?
Answer: The value was 5.139 and 4.887.

Question: And the “response … (replicates)” value ([2]; Log[Drug] -10)?
Answer: The value was 5.431 and 4.786 and 4.659 and 4.856 and 4.756 and 4.79 and 4.8682.

Question: And the “response … (replicates)” value ([2]; Log[Drug] -10.52)?
Answer: The value was 5.022 and 4.798 and 4.776 and 4.763 and 4.86 and 4.945 and 4.841.

Question: And the “response … (replicates)” value ([2]; Log[Drug] -11)?
Answer: The value was 4.915 and 4.765 and 4.615 and 4.7302 and 4.774 and 4.749 and 4.971.

Question: What about the “response … (replicates)” value ([2]; Log[Drug] -11.52) of the same molecule?
Answer: The value was 4.946 and 4.662 and 4.627 and 4.695 and 4.751 and 4.656 and 4.732.

Question: And the “response … (replicates)” value ([2]; Log[Drug] -12)?
Answer: The value was 4.887 and 4.582 and 4.674 and 4.754 and 4.726 and 4.751 and 4.811.

Question: And the Emax ([2]; HTLA, read-out: Emax relative to quinpirole response, DRD2, Tango)?
Answer: Its Emax is 71.3%.

Question: And the “β-arrestin2 recruitment response at DRD2 (source data, replicate values)” value (shortened to “β-arrestin2 recruitment response at DRD2”) ([2]; Log[Drug] -6)?
Answer: The value was 82.8973.

Question: And the “β-arrestin2 recruitment response at DRD2” value ([2]; Log[Drug] -6.52)?
Answer: The value was 72.8482 and 85.473 and 74.6038 and 82.6009 and 103.942 and 82.378 and 70.1593 and 68.4699 and 74.397.

Question: And the “β-arrestin2 recruitment response at DRD2” value ([2]; Log[Drug] -7)?
Answer: The value was 71.4846 and 69.3009 and 62.1089 and 68.8602 and 55.9009 and 59.7861 and 54.6819 and 54.8285 and 54.3284.

Question: What about the “β-arrestin2 recruitment response at DRD2” value ([2]; Log[Drug] -7.52) of the same molecule?
Answer: Its value is 50.7715 and 50.9759 and 58.0792 and 57.6214 and 43.2407 and 45.9376 and 55.9749 and 62.7315 and 56.5853.

Question: And the “β-arrestin2 recruitment response at DRD2” value ([2]; Log[Drug] -8)?
Answer: Its value is 39.7841 and 36.3747 and 29.4664 and 31.1292 and 29.8397 and 30.2988 and 27.2382 and 26.622 and 26.0732.

Question: And the “β-arrestin2 recruitment response at DRD2” value ([2]; Log[Drug] -8.52)?
Answer: Its value is 13.2168 and 14.3867 and 13.161 and 13.9303 and 10.9069 and 10.856 and 10.5462 and 11.4912 and 11.2421.

Question: What about the “β-arrestin2 recruitment response at DRD2” value ([2]; Log[Drug] -9) of the same molecule?
Answer: Its value is 7.123 and 6.617 and 6.837 and 5.043 and 6.064 and 6.895 and 5.588 and 6.122 and 5.826.

Question: And the “β-arrestin2 recruitment response at DRD2” value ([2]; Log[Drug] -9.52)?
Answer: The value was 5.908 and 5.15 and 5.772 and 5.0023 and 4.872 and 4.927 and 5.017 and 5.057 and 5.0924.

Question: And the “β-arrestin2 recruitment response at DRD2” value ([2]; Log[Drug] -10)?
Answer: Its value is 5.347 and 5.121 and 5.289 and 4.982 and 4.774 and 4.763 and 4.918 and 4.901 and 4.8503.

Question: What about the “β-arrestin2 recruitment response at DRD2” value ([2]; Log[Drug] -10.52) of the same molecule?
Answer: Its value is 5.092 and 5.033 and 5.133 and 4.671 and 4.683 and 4.718 and 4.817 and 4.868 and 4.747.

Question: And the “β-arrestin2 recruitment response at DRD2” value ([2]; Log[Drug] -11)?
Answer: Its value is 5.0524 and 5.024 and 4.843 and 4.786 and 4.868 and 4.603 and 4.715 and 4.851 and 5.108.

Question: What about the “β-arrestin2 recruitment response at DRD2” value ([2]; Log[Drug] -11.52) of the same molecule?
Answer: The value was 4.975 and 5.004 and 4.993 and 4.845 and 4.81 and 4.615 and 4.945 and 4.7318 and 4.6555.

Question: What about the “β-arrestin2 recruitment response, agonist mode (normalized)” value ([3]; Log[Drug] -9.52) of the same molecule?
Answer: The value was -0.8354 and -0.6725 and 0.6683 and 0.2383 and 1.852 and 0.7592 and 0.2273 and 0.7234 and 0.9859.

Question: And the “β-arrestin2 recruitment response, agonist mode (normalized)” value ([3]; Log[Drug] -10)?
Answer: The value was 0.6642 and 0.6683 and -0.5096 and -0.1895 and -0.3206 and 1.295 and 0.9379 and 4.834 and 0.8483.

Question: What about the “β-arrestin2 recruitment response, agonist mode (normalized)” value ([3]; Log[Drug] -10.52) of the same molecule?
Answer: Its value is 0.8312 and -0.848 and -0.5013 and 0.469 and 0.1267 and -0.3585 and 11.6165 and 0.685 and 0.3585.

Question: What about the “β-arrestin2 recruitment response, agonist mode (normalized)” value ([3]; Log[Drug] -11) of the same molecule?
Answer: Its value is -0.188 and 0.8354 and -0.1713 and -0.4961 and -0.2339 and 0.4322 and 2.113 and 0.3457 and 0.4834.

Question: What about the “β-arrestin2 recruitment response, agonist mode (normalized)” value ([3]; Log[Drug] -11.52) of the same molecule?
Answer: Its value is 1.3325 and -0.1754 and -0.6683 and -0.2719 and 3.032 and -0.4646 and -0.4129 and 1.767 and 1.504.

Question: What about the “β-arrestin2 recruitment response, agonist mode (normalized)” value ([3]; Log[Drug] -12) of the same molecule?
Answer: Its value is 0.1671 and -0.9983 and -0.6683 and -0.2567 and -0.0639 and 2.424 and -0.7778 and 0.7554 and 0.3457.

Question: What about the “response, Fig_S10l, replicate values” ([4]; Log[Drug] -6.52) of the same molecule?
Answer: The value was -2.091.

Question: What about the “response, Fig_S10l, replicate values” ([4]; Log[Drug] -7) of the same molecule?
Answer: The value was -4.051 and -1.4228 and 2.693 and -6.163 and -1.5474 and -1.737 and -7.607 and -30.8777 and -6.976.

Question: What about the “response, Fig_S10l, replicate values” ([4]; Log[Drug] -7.52) of the same molecule?
Answer: The value was -6.555 and -13.4609 and -0.98 and 4.322 and -3.875 and -2.693 and -7.055 and 7.925 and -34.7877.

Question: What about the “response, Fig_S10l, replicate values” ([4]; Log[Drug] -8) of the same molecule?
Answer: Its value is -3.792 and 35.132 and 2.507 and -11.1986 and -6.626 and 6.545 and -5.91 and -30.1494 and -3.473.

Question: What about the “response, Fig_S10l, replicate values” ([4]; Log[Drug] -8.52) of the same molecule?
Answer: Its value is 1.522 and -11.8615 and -2.437 and 12.7169 and -12.0506 and -8.665 and 20.957 and -2.778 and -10.1926.

Question: What about the “response, Fig_S10l, replicate values” ([4]; Log[Drug] -9) of the same molecule?
Answer: Its value is -4.295 and 4.13 and 0.2396 and -2.794 and 1.184 and 0.6235 and -1.336 and -7.8842 and -10.8253.

Question: And the “response, Fig_S10l, replicate values” ([4]; Log[Drug] -9.52)?
Answer: The value was 25.6854 and -2.744 and -6.32 and -4.5985 and -1.891 and 4.517 and 39.1804 and -4.421 and -3.844.

Question: And the “response, Fig_S10l, replicate values” ([4]; Log[Drug] -10)?
Answer: The value was -8.462 and 9.478 and -1.609 and 0.3049 and 15.9901 and -6.166 and 19.6932 and 12.6773 and 5.951.

Question: What about the “response, Fig_S10l, replicate values” ([4]; Log[Drug] -10.52) of the same molecule?
Answer: The value was 6.737 and -12.3624 and -4.665 and -4.851 and -5.052 and -4.841 and 9.484 and 11.2587 and 10.4562.

Question: What about the “response, Fig_S10l, replicate values” ([4]; Log[Drug] -11) of the same molecule?
Answer: The value was -35.1417 and -18.9513 and -15.3749 and 4.5184 and -0.5498 and 5.57 and -9.125 and -8.22 and 4.834.

Question: What about the “response, Fig_S10l, replicate values” ([4]; Log[Drug] -11.52) of the same molecule?
Answer: The value was -5.783 and 6.132 and 4.745 and -13.0691 and -5.46 and 4.358 and -4.571 and 10.1317 and -13.0711.

Question: And the “response, Fig_S10l, replicate values” ([4]; Log[Drug] -12)?
Answer: Its value is 6.173 and -15.2273 and 9.6789 and 4.873 and 7.863 and 1.749 and -9.697 and 0.6459 and 4.404.
